Test results reported in ChEMBL document CHEMBL4257522, “Synthesis and preliminary anti-inflammatory and anti-bacterial evaluation of some diflunisal aza-analogs” (Medchemcomm, 2018).
Activity calls are given as the source filed them.

Experiments:
[1] = test system: Enterococcus faecium; assay: Toxicity in Enterococcus faecium ATCC 700221 up to 32 uM measured after 16 hrs; assay type: organism-based; details: in vitro
[2] = test system: Pseudomonas aeruginosa; assay: Potentiation of ciprofloxacin-induced antibacterial activity against Pseudomonas aeruginosa ATCC BAA-2108 assessed as minimum modulatory concentration up to 32 uM measured after 16 hrs in presence of MIC/4 ciprofloxacin; assay type: functional; details: ATCC BAA-2108, 16 h, read-out: MEC
[3] = test system: Staphylococcus aureus; assay: Potentiation of erythromycin-induced antibacterial activity against Staphylococcus aureus ATCC 33592 assessed as minimum modulatory concentration up to 32 uM measured after 16 hrs in presence of MIC/4 erythromycin; assay type: functional; details: ATCC 33592, 16 h, read-out: MEC
[4] = test system: Staphylococcus aureus; assay: Potentiation of methicillin-induced antibacterial activity against Staphylococcus aureus ATCC 33592 assessed as minimum modulatory concentration up to 32 uM measured after 16 hrs in presence of MIC/4 methicillin; assay type: functional; details: ATCC 33592, 16 h, read-out: MEC
[5] = test system: Macrophage cell line; assay: Induction of IL-8 production in human PBMC-differentiated macrophages after 24 hrs by ELISA; assay type: cell-based
[6] = test system: Staphylococcus aureus; assay: Potentiation of geneticin-induced antibacterial activity against Staphylococcus aureus ATCC 33592 assessed as minimum modulatory concentration up to 32 uM measured after 16 hrs in presence of MIC/4 geneticin; assay type: functional; details: ATCC 33592, 16 h, read-out: MEC
[7] = test system: Macrophage cell line; assay: Induction of IL-1beta production in human PBMC-differentiated macrophages after 24 hrs by ELISA; assay type: cell-based
[8] = test system: Macrophage cell line; assay: Cytotoxicity against human PBMC-differentiated macrophages treated for 24 hrs followed by compound washout and measured after 48 hrs by MTT assay; assay type: cell-based
[9] = test system: Streptococcus pyogenes; assay: Potentiation of erythromycin-induced antibacterial activity against Streptococcus pyogenes ATCC 14289 assessed as minimum modulatory concentration up to 32 uM measured after 16 hrs in presence of MIC/4 erythromycin; assay type: functional; details: ATCC 14289, 16 h, read-out: MEC
[10] = test system: Pseudomonas aeruginosa; assay: Potentiation of tetracycline-induced antibacterial activity against Pseudomonas aeruginosa ATCC BAA-2108 assessed as minimum modulatory concentration up to 32 uM measured after 16 hrs in presence of MIC/4 tetracycline; assay type: functional; details: ATCC BAA-2108, 16 h, read-out: MEC
[11] = test system: Staphylococcus aureus; assay: Potentiation of ciprofloxacin-induced antibacterial activity against Staphylococcus aureus ATCC 33592 assessed as minimum modulatory concentration up to 32 uM measured after 16 hrs in presence of MIC/4 ciprofloxacin; assay type: functional; details: ATCC 33592, 16 h, read-out: MEC
[12] = test system: Pseudomonas aeruginosa; assay: Potentiation of methicillin-induced antibacterial activity against Pseudomonas aeruginosa ATCC BAA-2108 assessed as minimum modulatory concentration up to 32 uM measured after 16 hrs in presence of MIC/4 methicillin; assay type: functional; details: ATCC BAA-2108, 16 h, read-out: MEC
[13] = test system: Escherichia coli; assay: Potentiation of ciprofloxacin-induced antibacterial activity against Escherichia coli ATCC 43894 assessed as minimum modulatory concentration up to 32 uM measured after 16 hrs in presence of MIC/4 ciprofloxacin; assay type: functional; details: ATCC 43894, 16 h, read-out: MEC
[14] = test system: Macrophage cell line; assay: Induction of prostaglandin production in human PBMC-differentiated macrophages after 24 hrs by ELISA; assay type: cell-based
[15] = test system: Escherichia coli; assay: Potentiation of erythromycin-induced antibacterial activity against Escherichia coli ATCC 43894 assessed as minimum modulatory concentration up to 32 uM measured after 16 hrs in presence of MIC/4 erythromycin; assay type: functional; details: ATCC 43894, 16 h, read-out: MEC
[16] = test system: Klebsiella pneumoniae; assay: Toxicity in Klebsiella pneumoniae ATCC 13883 up to 32 uM measured after 16 hrs; assay type: organism-based
[17] = test system: Streptococcus pyogenes; assay: Potentiation of ciprofloxacin-induced antibacterial activity against Streptococcus pyogenes ATCC 14289 assessed as minimum modulatory concentration up to 32 uM measured after 16 hrs in presence of MIC/4 ciprofloxacin; assay type: functional; details: ATCC 14289, 16 h, read-out: MEC
[18] = test system: Escherichia coli; assay: Toxicity in Escherichia coli ATCC 43894 up to 32 uM measured after 16 hrs; assay type: organism-based
[19] = test system: Klebsiella pneumoniae; assay: Potentiation of geneticin-induced antibacterial activity against Klebsiella pneumoniae ATCC 13883 assessed as minimum modulatory concentration up to 32 uM measured after 16 hrs in presence of MIC/4 geneticin; assay type: functional; details: ATCC 13883, 16 h, read-out: MEC
[20] = test system: Klebsiella pneumoniae; assay: Potentiation of ciprofloxacin-induced antibacterial activity against Klebsiella pneumoniae ATCC 13883 assessed as minimum modulatory concentration up to 32 uM measured after 16 hrs in presence of MIC/4 ciprofloxacin; assay type: functional; details: ATCC 13883, 16 h, read-out: MEC
[21] = test system: Enterococcus faecium; assay: Potentiation of geneticin-induced antibacterial activity against Enterococcus faecium ATCC 700221 assessed as minimum modulatory concentration up to 32 uM measured after 16 hrs in presence of MIC/4 geneticin; assay type: functional; details: ATCC 700221, 16 h, read-out: MEC
[22] = test system: Streptococcus pyogenes; assay: Potentiation of tetracycline-induced antibacterial activity against Streptococcus pyogenes ATCC 14289 assessed as minimum modulatory concentration up to 32 uM measured after 16 hrs in presence of MIC/4 tetracycline; assay type: functional; details: ATCC 14289, 16 h, read-out: MEC
[23] = test system: Pseudomonas aeruginosa; assay: Potentiation of erythromycin-induced antibacterial activity against Pseudomonas aeruginosa ATCC BAA-2108 assessed as minimum modulatory concentration up to 32 uM measured after 16 hrs in presence of MIC/4 erythromycin; assay type: functional; details: ATCC BAA-2108, 16 h, read-out: MEC
[24] = test system: Streptococcus pyogenes; assay: Toxicity in Streptococcus pyogenes ATCC 14289 up to 32 uM measured after 16 hrs; assay type: organism-based
[25] = test system: Streptococcus pyogenes; assay: Potentiation of geneticin-induced antibacterial activity against Streptococcus pyogenes ATCC 14289 assessed as minimum modulatory concentration up to 32 uM measured after 16 hrs in presence of MIC/4 geneticin; assay type: functional; details: ATCC 14289, 16 h, read-out: MEC
[26] = test system: Escherichia coli; assay: Potentiation of tetracycline-induced antibacterial activity against Escherichia coli ATCC 43894 assessed as minimum modulatory concentration up to 32 uM measured after 16 hrs in presence of MIC/4 tetracycline; assay type: functional; details: ATCC 43894, 16 h, read-out: MEC
[27] = test system: Streptococcus pyogenes; assay: Potentiation of methicillin-induced antibacterial activity against Streptococcus pyogenes ATCC 14289 assessed as minimum modulatory concentration up to 32 uM measured after 16 hrs in presence of MIC/4 methicillin; assay type: functional; details: ATCC 14289, 16 h, read-out: MEC
[28] = test system: Enterococcus faecium; assay: Potentiation of methicillin-induced antibacterial activity against Enterococcus faecium ATCC 700221 assessed as minimum modulatory concentration up to 32 uM measured after 16 hrs in presence of MIC/4 methicillin; assay type: functional; details: ATCC 700221, 16 h, read-out: MEC
[29] = test system: Staphylococcus aureus; assay: Toxicity in Staphylococcus aureus ATCC 33592 up to 32 uM measured after 16 hrs; assay type: organism-based
[30] = test system: Enterococcus faecium; assay: Potentiation of erythromycin-induced antibacterial activity against Enterococcus faecium ATCC 700221 assessed as minimum modulatory concentration up to 32 uM measured after 16 hrs in presence of MIC/4 erythromycin; assay type: functional; details: ATCC 700221, 16 h, read-out: MEC
[31] = test system: Klebsiella pneumoniae; assay: Potentiation of tetracycline-induced antibacterial activity against Klebsiella pneumoniae ATCC 13883 assessed as minimum modulatory concentration up to 32 uM measured after 16 hrs in presence of MIC/4 tetracycline; assay type: functional; details: ATCC 13883, 16 h, read-out: MEC
[32] = test system: Macrophage cell line; assay: Antiinflammatory activity in human PBMC-differentiated macrophages assessed as inhibition of LPS-induced prostaglandin production at 0.01 to 10 uM measured after 24 hrs by ELISA; assay type: functional, cell-based
[33] = test system: Enterococcus faecium; assay: Potentiation of tetracycline-induced antibacterial activity against Enterococcus faecium ATCC 700221 assessed as minimum modulatory concentration up to 32 uM measured after 16 hrs in presence of MIC/4 tetracycline; assay type: functional; details: ATCC 700221, 16 h, read-out: MEC
[34] = test system: Staphylococcus aureus; assay: Potentiation of tetracycline-induced antibacterial activity against Staphylococcus aureus ATCC 33592 assessed as minimum modulatory concentration up to 32 uM measured after 16 hrs in presence of MIC/4 tetracycline; assay type: functional; details: ATCC 33592, 16 h, read-out: MEC

Cc1nc(-c2ccccc2)cc(C(=O)O)c1O
> 32 µM: minimal effective concentration [2] | minimal effective concentration [3] | minimal effective concentration [9] | minimal effective concentration [10] | minimal effective concentration [11] | minimal effective concentration [12] | minimal effective concentration [13] | minimal effective concentration [15] | minimal effective concentration [17] | minimal effective concentration [19] | minimal effective concentration [20] | minimal effective concentration [21] | minimal effective concentration [22] | minimal effective concentration [23] | minimal effective concentration [25] | minimal effective concentration [26] | minimal effective concentration [27] | minimal effective concentration [28] | minimal effective concentration [30] | minimal effective concentration [31] | minimal effective concentration [33]
90.8 µM: IC50 [8]
Non-Toxic: Activity [1] | Activity [5] | Activity [7] | Activity [14] | Activity [16] | Activity [18] | Activity [24] | Activity [29]
16 µM: minimal effective concentration [4] | minimal effective concentration [6] | minimal effective concentration [34]
inactive: inhibition [32]

C[n+]1cc(O)c(C(=O)[O-])cc1-c1ccccc1
91.4 µM: IC50 [8]
> 32 µM: minimal effective concentration [2] | minimal effective concentration [3] | minimal effective concentration [4] | minimal effective concentration [6] | minimal effective concentration [9] | minimal effective concentration [10] | minimal effective concentration [11] | minimal effective concentration [12] | minimal effective concentration [13] | minimal effective concentration [15] | minimal effective concentration [17] | minimal effective concentration [19] | minimal effective concentration [20] | minimal effective concentration [21] | minimal effective concentration [22] | minimal effective concentration [23] | minimal effective concentration [25] | minimal effective concentration [26] | minimal effective concentration [27] | minimal effective concentration [28] | minimal effective concentration [30] | minimal effective concentration [31] | minimal effective concentration [33] | minimal effective concentration [34]
Non-Toxic: Activity [1] | Activity [5] | Activity [7] | Activity [14] | Activity [16] | Activity [18] | Activity [24] | Activity [29]
inactive: inhibition [32]
